Measurements published in PubChem BioAssay AID1259407 (Chemical Carcinogenesis Research Information System (CCRIS), 2018).
Activity calls are given as the source filed them. How the calls were made is not given here.

Tested on: CCRIS mutagenicity, Ames/micronucleus/aberration tests
Test: CCRIS mutagenicity studies

## CCCN(CCC)C(=O)SCC
End Point: In vitro chromosomal aberrations, Test System: Chinese hamster ovary (CHO) cells, Metabolic Activation: None
  mutagenic call: inactive; negative
End Point: In vitro chromosomal aberrations, Test System: Chinese hamster ovary (CHO) cells, Metabolic Activation: Rat, Liver, S-9
  mutagenic call: inactive; negative
End Point: In vitro chromosomal aberrations, Test System: Mouse lymphoma cells, Strain/Indicator: L5178Y (tk+/tk-), Metabolic Activation: None
  mutagenic call: active; positive (structure and ploidy)
End Point: In vitro chromosomal aberrations, Test System: Mouse lymphoma cells, Strain/Indicator: L5178Y (tk+/tk-), Metabolic Activation: S-9
  mutagenic call: inactive; negative
Test System: AMES SALMONELLA TYPHIMURIUM, Strain/Indicator: TA97, Metabolic Activation: HAMSTER, LIVER, S-9, AROCLOR 1254 (10 OR 30%), Method: PREINCUBATION
  mutagenic call: inactive; negative
Test System: AMES SALMONELLA TYPHIMURIUM, Strain/Indicator: TA97, Metabolic Activation: NONE, Method: PREINCUBATION
  mutagenic call: inactive; negative
Test System: AMES SALMONELLA TYPHIMURIUM, Strain/Indicator: TA97, Metabolic Activation: RAT, LIVER, S-9, AROCLOR 1254 (10 OR 30%), Method: PREINCUBATION
  mutagenic call: inactive; negative
Test System: AMES SALMONELLA TYPHIMURIUM, Strain/Indicator: TA98, Metabolic Activation: HAMSTER, LIVER, S-9, AROCLOR 1254 (10%), Method: PREINCUBATION
  mutagenic call: inactive; negative
Test System: AMES SALMONELLA TYPHIMURIUM, Strain/Indicator: TA98, Metabolic Activation: HAMSTER, LIVER, S-9, AROCLOR 1254 (30%), Method: PREINCUBATION
  mutagenic call: inactive; negative
Test System: AMES SALMONELLA TYPHIMURIUM, Strain/Indicator: TA98, Metabolic Activation: NONE, Method: PREINCUBATION
  mutagenic call: inactive; negative
Test System: AMES SALMONELLA TYPHIMURIUM, Strain/Indicator: TA98, Metabolic Activation: RAT, LIVER, S-9, AROCLOR 1254 (10%), Method: PREINCUBATION
  mutagenic call: inactive; negative
Test System: AMES SALMONELLA TYPHIMURIUM, Strain/Indicator: TA98, Metabolic Activation: RAT, LIVER, S-9, AROCLOR 1254 (30%), Method: PREINCUBATION
  mutagenic call: inactive; negative
Test System: AMES SALMONELLA TYPHIMURIUM, Strain/Indicator: TA100, Metabolic Activation: HAMSTER, LIVER, S-9, AROCLOR 1254 (10%), Method: PREINCUBATION
  mutagenic call: inactive; negative
Test System: AMES SALMONELLA TYPHIMURIUM, Strain/Indicator: TA100, Metabolic Activation: HAMSTER, LIVER, S-9, AROCLOR 1254 (30%), Method: PREINCUBATION
  mutagenic call: inactive; negative
Test System: AMES SALMONELLA TYPHIMURIUM, Strain/Indicator: TA100, Metabolic Activation: NONE, Method: PREINCUBATION
  mutagenic call: inactive; negative
Test System: AMES SALMONELLA TYPHIMURIUM, Strain/Indicator: TA100, Metabolic Activation: RAT, LIVER, S-9, AROCLOR 1254 (10%), Method: PREINCUBATION
  mutagenic call: inactive; negative
Test System: AMES SALMONELLA TYPHIMURIUM, Strain/Indicator: TA100, Metabolic Activation: RAT, LIVER, S-9, AROCLOR 1254 (30%), Method: PREINCUBATION
  mutagenic call: inactive; negative
Test System: AMES SALMONELLA TYPHIMURIUM, Strain/Indicator: TA1535, Metabolic Activation: HAMSTER, LIVER, S-9, AROCLOR 1254 (10 OR 30%), Method: PREINCUBATION
  mutagenic call: inactive; negative
Test System: AMES SALMONELLA TYPHIMURIUM, Strain/Indicator: TA1535, Metabolic Activation: NONE, Method: PREINCUBATION
  mutagenic call: inactive; negative
Test System: AMES SALMONELLA TYPHIMURIUM, Strain/Indicator: TA1535, Metabolic Activation: RAT, LIVER, S-9, AROCLOR 1254 (10 OR 30%), Method: PREINCUBATION
  mutagenic call: inactive; negative
Test System: AMES SALMONELLA TYPHIMURIUM, Strain/Indicator: TA1537, Metabolic Activation: HAMSTER, LIVER, S-9, AROCLOR 1254 (10 OR 30%), Method: PREINCUBATION
  mutagenic call: inactive; negative
Test System: AMES SALMONELLA TYPHIMURIUM, Strain/Indicator: TA1537, Metabolic Activation: NONE, Method: PREINCUBATION
  mutagenic call: inactive; negative
Test System: AMES SALMONELLA TYPHIMURIUM, Strain/Indicator: TA1537, Metabolic Activation: RAT, LIVER, S-9, AROCLOR 1254 (10 OR 30%), Method: PREINCUBATION
  mutagenic call: inactive; negative
Test System: Ames Salmonella typhimurium, Strain/Indicator: TA98, Metabolic Activation: None, Method: Plate incorporation amd preincubation (2 trials)
  mutagenic call: inactive; negative. (cytotoxicity at doses of 1000 ug/plate and above.)
Test System: Ames Salmonella typhimurium, Strain/Indicator: TA98, Metabolic Activation: Rat, Liver, S-9, Aroclor, Method: Plate incorporation
  mutagenic call: inactive; negative. (cytotoxicity at doses of 1000 ug/plate and above.)
Test System: Ames Salmonella typhimurium, Strain/Indicator: TA100, Metabolic Activation: None, Method: Plate incorporation amd preincubation (2 trials)
  mutagenic call: inactive; negative. (cytotoxicity at doses of 1000 ug/plate and above.)
Test System: Ames Salmonella typhimurium, Strain/Indicator: TA100, Metabolic Activation: Rat, Liver, S-9, Aroclor, Method: Plate incorporation
  mutagenic call: inactive; negative. (cytotoxicity at doses of 1000 ug/plate and above.)
Test System: Ames Salmonella typhimurium, Strain/Indicator: TA1535, Metabolic Activation: None, Method: Plate incorporation amd preincubation (2 trials)
  mutagenic call: inactive; negative. (cytotoxicity at doses of 1000 ug/plate and above.)
Test System: Ames Salmonella typhimurium, Strain/Indicator: TA1535, Metabolic Activation: Rat, Liver, S-9, Aroclor, Method: Plate incorporation
  mutagenic call: inactive; negative. (cytotoxicity at doses of 1000 ug/plate and above.)
Test System: Ames Salmonella typhimurium, Strain/Indicator: TA1537, Metabolic Activation: None, Method: Plate incorporation amd preincubation (2 trials)
  mutagenic call: inactive; negative. (cytotoxicity at doses of 1000 ug/plate and above.)
Test System: Ames Salmonella typhimurium, Strain/Indicator: TA1537, Metabolic Activation: Rat, Liver, S-9, Aroclor, Method: Plate incorporation
  mutagenic call: inactive; negative. (cytotoxicity at doses of 1000 ug/plate and above.)
Test System: E. coli, Strain/Indicator: WP2P/WP2P uvrA, Metabolic Activation: None, Method: Plate incorporation amd preincubation (2 trials)
  mutagenic call: inactive; negative. (cytotoxicity at doses of 1000 ug/plate and above.)
Test System: E. coli, Strain/Indicator: WP2P/WP2P uvrA, Metabolic Activation: Rat, Liver, S-9, Aroclor, Method: Plate incorporation
  mutagenic call: inactive; negative. (cytotoxicity at doses of 1000 ug/plate and above.)
Test System: Mouse lymphoma cells, Strain/Indicator: L5178Y (tk+/tk-), Metabolic Activation: None, Method: Not given by California Department of Pesticides Regulation
  mutagenic call: active; positive
Test System: Mouse lymphoma cells, Strain/Indicator: L5178Y (tk+/tk-), Metabolic Activation: Rat, Liver, S-9, Method: Not given by California Department of Pesticides Regulation
  mutagenic call: active; positive
Test System: UDS primary rat hepatocytes, Strain/Indicator: Thymidine incorporation, Method: Liquid scintillation counting
  mutagenic call: inactive; negative
